Experimental data reported in patent publication US7157453B2, “Urea substituted imidazoquinolines” (3M Innovation Properties Company, priority 1999, dated 2007).

Tests used:
[1] = tested on: tumor necrosis factor (α); experiment: Cytokine Induction in Human Cells: tumor necrosis factor (α) by ELISA; format: cell-based; details: PBMC; human PBMCs, incubated 18 to 24 hours, lowest concentration found to induce tumor necrosis factor
Procedure, shortened: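 Healthy-donor PBMCs (1.5–2×10^6 cells/mL final, RPMI with 10% FBS) incubated 18–24 h at 37 °C with compound in three- or ten-fold serial dilutions, DMSO ≤1% final. Supernatant TNF measured by ELISA; value is lowest concentration inducing TNF.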

interferon (α) = experiment: Cytokine Induction in Human Cells: interferon (α) by ELISA; format: cell-based; details: PBMC; human PBMCs, incubated 18 to 24 hours, lowest concentration found to induce interferon
Procedure, shortened: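 Healthy-donor human PBMCs (1.5–2×10^6 cells/mL final, RPMI with 10% FBS) exposed to serially diluted compound (≤1% DMSO) for 18–24 h at 37 °C, 5% CO2. Supernatant IFN-α measured by ELISA; value reported is lowest concentration inducing interferon.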

Nc1nc2ccccc2c2c1ncn2CCCCNC(=O)N1CCOCC1 [Example 5, N^4-[4-(4-Amino-1H-imidazo[4,5-c]quinolin-1-yl)butyl]-4-morpholinecarboxamide]
minimal effective concentration [1]: > 30 µM
melting point: 177 to 179.5 °C
minimal effective concentration (interferon (α)): 3.33 µM

CCCNC(=S)NCCCn1c(CCOC)nc2c(N)nc3ccccc3c21 [Example 156, N-{3-[4-amino-2-(2-methoxyethyl)-1H-imidazo[4,5-c]quinolin-1-yl]propyl}-N′-propylthiourea]
minimal effective concentration [1]: 1.11 µM
melting point: 172 to 173 °C
minimal effective concentration (interferon (α)): 0.01 µM

Nc1nc2ccccc2c2c1nc(CCCOc1ccccc1)n2CCCCNC(=O)N1CCOCC1 [Example 171, N-{4-[4-amino-2-(3-phenoxypropyl)-1H-imidazo[4,5-c]quinolin-1-yl]butyl}morpholine-4-carboxamide]
minimal effective concentration [1]: 10 µM
melting point: 71.5 to 72.1 °C
minimal effective concentration (interferon (α)): > 30 µM

CC(C)(C)OC(=O)NCCn1cnc2c(N)nc3ccccc3c21 [Example 1, Tert-Butyl N-[2-(4-Amino-1H-imidazo[4,5-c]quinolin-1-yl)ethyl]carbamate]
minimal effective concentration [1]: 30 µM
melting point: 215 °C
minimal effective concentration (interferon (α)): 3.33 µM

CCCCc1nc2c(N)nc3ccccc3c2n1CCCCNC(=O)Nc1ccccc1 [Example 164, N-[4-(4-amino-2-butyl-1H-imidazo[4,5-c]quinolin-1-yl)butyl]-N′-phenylurea]
minimal effective concentration [1]: 0.12 µM
melting point: 185 to 187 °C
minimal effective concentration (interferon (α)): 0.04 µM

CCCCc1nc2c(N)nc3ccccc3c2n1CCCNC(=O)N1CCOCC1 [Example 151, N-[3-(4-amino-2-butyl-1H-imidazo[4,5-c]quinolin-1-yl)propyl]morpholine-4-carboxamide]
minimal effective concentration [1]: 0.01 µM
melting point: 193.4 to 194.6 °C
minimal effective concentration (interferon (α)): 0.01 µM

CCCCCc1nc2c(N)nc3ccccc3c2n1CCCCNC(=O)Nc1ccccc1 [Example 159, N-[4(4-amino-2-pentyl-1H-imidazo[4,5-c]quinolin-1-yl)butyl]-N′-phenylurea]
minimal effective concentration [1]: 10 µM
melting point: 159 to 160.4 °C
minimal effective concentration (interferon (α)): 1.11 µM

COCCc1nc2c(N)nc3ccccc3c2n1CCCNC(=O)OC(C)(C)C [Example 148, tert-butyl 3-[4-amino-2-(2-methoxyethyl)-1H-imidazo[4,5-c]quinolin-1-yl]propylcarbamate]
minimal effective concentration [1]: 0.04 µM
melting point: 174.2 to 175.8 °C
minimal effective concentration (interferon (α)): 0.04 µM

CCCc1nc2c(N)nc3ccccc3c2n1CCCCNC(=O)Nc1ccccc1 [Example 160, N-[4-(4-amino-2-propyl-1H-imidazo[4,5-c]quinolin-1-yl)butyl]-N′-phenylurea]
minimal effective concentration [1]: 1.11 µM
melting point: 182.8 to 184 °C
minimal effective concentration (interferon (α)): 0.12 µM

COCCc1nc2c(N)nc3ccccc3c2n1CCNC(=O)OC(C)(C)C [Example 178, tert-butyl 2-[4-amino-2-(methoxyethyl)-1H-imidazo[4,5-c]quinolin-1-yl]ethylcarbamate]
minimal effective concentration [1]: 1.11 µM
melting point: 173 to 175 °C
minimal effective concentration (interferon (α)): 0.12 µM

CCCCc1nc2c(N)nc3ccccc3c2n1CCCNC(=S)NCCC [Example 152, N-[3-(4-amino-2-butyl-1H-imidazo[4,5-c]quinolin-1-yl)propyl]-N′-propylthiourea]
minimal effective concentration [1]: 0.04 µM
melting point: 144.5 to 145.5 °C
minimal effective concentration (interferon (α)): 0.04 µM

CN(C(=O)NCCCCn1cnc2c(N)nc3ccccc3c21)c1ccccc1 [Example 6, N^1-[4-(4-Amino-1H-imidazo[4,5-c]quinolin-1-yl)butyl]-N-methyl-N-phenylurea]
minimal effective concentration [1]: > 30 µM
melting point: 87 to 88 °C
minimal effective concentration (interferon (α)): 0.37 µM

CC(C)(C)OC(=O)NCCCCn1cnc2c(N)nc3ccccc3c21 [Example 2]
minimal effective concentration [1]: 3.33 µM
melting point: 171 to 173 °C
minimal effective concentration (interferon (α)): 0.37 µM

COCCc1nc2c(N)nc3ccccc3c2n1CCCNC(=S)NC1CCCCC1 [Example 157, N-{3-[4-amino-2-(2-methoxyethyl)-1H-imidazo[4,5-c]quinolin-1-yl]propyl}-N′-cyclohexylthiourea]
minimal effective concentration [1]: 1.11 µM
melting point: 199 to 200 °C
minimal effective concentration (interferon (α)): 0.37 µM

CCCCNC(=O)NCCCn1c(CCOC)nc2c(N)nc3ccccc3c21 [Example 162, N-{3-[4-amino-2-(2-methoxyethyl)-1H-imidazo[4,5-c]quinolin-1-yl]propyl}-N′-butylurea]
minimal effective concentration [1]: 0.04 µM
melting point: 159 to 160 °C
minimal effective concentration (interferon (α)): 0.01 µM

CCCCNC(=O)NCCCn1c(CCCC)nc2c(N)nc3ccccc3c21 [Example 150, N-[3-(4-amino-2-butyl-1H-imidazo[4,5-c]quinolin-1-yl)propyl]-N′-butylurea]
minimal effective concentration [1]: 0.37 µM
melting point: 185.5 to 186.4 °C
minimal effective concentration (interferon (α)): 0.04 µM

Cc1nc2c(N)nc3ccccc3c2n1CCCNC(=O)OC(C)(C)C [Example 176, tert-butyl 3-(4-amino-2-methyl-1H-imidazo[4,5-c]quinolin-1-yl)propylcarbamate]
minimal effective concentration [1]: 1.11 µM
melting point: 112 to 115 °C
minimal effective concentration (interferon (α)): 0.12 µM

Cc1nc2c(N)nc3ccccc3c2n1CCCCNC(=O)Nc1ccccc1 [Example 144, N-[4-(4-amino-2-methyl-1H-imidazo[4,5-c]quinolin-1-yl)butyl]-N′-phenylurea]
minimal effective concentration [1]: 0.37 µM
melting point: 171.5 to 172.5 °C
minimal effective concentration (interferon (α)): 0.04 µM

CCOCc1nc2c(N)nc3ccccc3c2n1CCNC(=O)OC(C)(C)C [Example 177, tert-butyl 2-[4-amino-2-(ethoxymethyl)-1H-imidazo[4,5-c]quinolin-1-yl]ethylcarbamate]
minimal effective concentration [1]: 0.37 µM
melting point: 201 to 202 °C
minimal effective concentration (interferon (α)): 0.04 µM

CCCCCCc1nc2c(N)nc3ccccc3c2n1CCCCNC(=O)Nc1ccccc1 [Example 155, N-[4-(4-amino-2-hexyl-1H-imidazo[4,5-c]quinolin-1-yl)butyl]-N′-phenylurea]
minimal effective concentration [1]: 10 µM
melting point: 170.4 to 171.6 °C
minimal effective concentration (interferon (α)): 3.33 µM

CCc1nc2c(N)nc3ccccc3c2n1CCCCNC(=O)Nc1ccccc1 [Example 143, N-[4-(4-amino-2-ethyl-1H-imidazo[4,5-c]quinolin-1-yl)butyl]-N′-phenylurea]
minimal effective concentration [1]: 0.37 µM
melting point: 179.7 to 181.4 °C
minimal effective concentration (interferon (α)): 0.01 µM

CCOCc1nc2c(N)nc3ccccc3c2n1CCCNC(=O)OC(C)(C)C [Example 175, tert-butyl 3-[4-amino-2-(ethoxymethyl)-1H-imidazo[4,5-c]quinolin-1-yl]propylcarbamate]
minimal effective concentration [1]: 0.37 µM
melting point: 124 to 126 °C
minimal effective concentration (interferon (α)): 0.04 µM

COCCc1nc2c(N)nc3ccccc3c2n1CCCNC(=O)N1CCOCC1 [Example 163, N-{3-[4-amino-2-(2-methoxyethyl)-1H-imidazo[4,5-c]quinolin-1-yl]propyl}morpholine-4-carboxamide]
minimal effective concentration [1]: 0.01 µM
melting point: 194 to 196 °C
minimal effective concentration (interferon (α)): 0.01 µM

CCCCc1nc2c(N)nc3ccccc3c2n1CCCNC(=O)NC1CCCCC1 [Example 153, N-[3-(4-amino-2-butyl-1H-imidazo[4,5-c]quinolin-1-yl)propyl]-N′-cyclohexylurea]
minimal effective concentration [1]: 0.12 µM
melting point: 200 to 201 °C
minimal effective concentration (interferon (α)): 0.01 µM

Cc1nc2c(N)nc3c(c2n1CCCCNC(=O)N1CCOCC1)CCCC3 [Example 170, N-[4-(4-amino-2-methyl-6,7,8,9-tetrahydro-1H-imidazo[4,5-c]quinolin-1-yl)butyl]morpholine-4-carboxamide]
minimal effective concentration [1]: 10 µM
melting point: 133.6 to 134.6 °C
minimal effective concentration (interferon (α)): 0.12 µM

CC(C)(C)OC(=O)NCCCn1cnc2c(N)nc3ccccc3c21 [Example 173, tert-butyl 3-(4-amino-1H-imidazo[4,5-c]quinolin-1-yl)propylcarbamate]
minimal effective concentration [1]: 10 µM
melting point: 196 to 198 °C
minimal effective concentration (interferon (α)): 1.11 µM
